Experimental data as given in US20230130102A1, “Na/K-ATPase LIGANDS AND USE THEREOF FOR TREATMENT OF CANCER” (Marshall University Research Corporation, priority 2019, published 2023).
“Also recorded” adds a separate entry of the source.

Assays:
DU145 derived subclones = test: Western blot / immunostaining of EMT markers, Src/FAK activation and proliferation markers in DU145 derived subclones; type: cell-based, human; settings: subclone 2 cells, 1 μM, 24 hours
[1] = test system: clone 2 spheroids (DU145 derived); test: 3D culture spheroid invasion assay, subclone 2; type: cell-based, human
Procedure: (§1) 3D culture-spheroid invasion assay. Cells were trypsinized gently (0.05% Trypsin-EDTA) and diluted at 1000 cells in 20 μl of full serum media for DU145 and C4-2 derived sub-clones or 500 cells in 20 ul for PC3 cells and allowed to form spheroids using hanging drop technique for 3 days, as described previously. Generated spheroids were then embedded into 3D matrix (not yet solidified at the time of experiment), as described in the previous section, on top of a 1% solidified agarose coating in 48 well plates. Spheroids were monitored from day 1 to different time points and images were taken using a phase contrast microscope fitted with camera, at same settings. Spheroid growth or invasion area was quantified using ImageJ software from NIH. The following formulas were used for quantitation of spheroids:
(§2) Spheroid invasion=(Invasion area/Spheroid area)*100
(§3) Spheroid growth=(Spheroid area at Day 3 or 7-Spheroid area at 16 hours)/Spheroid area at 16 hours
(§4) For drug treatment, compound was diluted into media, from stock solution. For MMP secretion, conditioned media for 3 days were collected from top of matrix and assessed for MMP secretion by Western blot using Matrix Remodeling Antibody Sampler kit from Cell Signaling Technology (Cat #73959).

subclone 2 spheroids = test: MMP secretion by spheroids (Western blot of conditioned media); type: cell-based, human
Procedure: as §4

[2] = test system: EGF or dopamine induced ERK activation; test: EGF- or dopamine-induced ERK activation in LLC-PK1 cells; type: cell-based, pig
Procedure: Western blot, Immunoprecipitation and Immunostaining. Cells were grown to 100% confluency and Western blot were performed as described before. Images were quantified with ImageJ software from NIH. Immunoprecipitation studies were performed as described before. α1 NKA immunostaining was performed by growing cells on sterilized coverslips in 6 well tissue culture plates and permeabilization/fixation with ice-cold methanol followed by blocking with 5% horse serum and 0.1% Triton X-100 in 1× Phosphate buffered saline (PBS) for 30 minutes. Coverslips were then stained with an anti-α1 NKA antibody (Millipore, Cat #05-369) at 1:100 dilution in 1% BSA (Bovine Serum Albumin) containing 1×PBS solution for overnight. Next day after three washes, coverslips were stained with Alexa Fluor 488 conjugated anti-mouse secondary antibody (Thermo-Fisher) for 1 hour, washed extensively and then imaged using a fluorescent microscope with GFP filter or confocal microscope (LEICA-DMIRE2). E-cadherin and occludin immunostaining was performed in a similar manner. Phospho-Src, phospho ERK1/2 immunostaining were performed as described before and images were taken with a LEICA DMIRE2 confocal microscope. […]

plasma stability = type: in vitro ADME
A425P and Y260A cells = test: basal ERK activation in Src binding mutant Y260A and A425P cells; type: cell-based, pig
Procedure: Characterization of MB5 activity on the NKA receptor function known as the NKA/Src binary receptor mechanism was conducted in a pig kidney epithelial cells (LLC-PK1)-based platform using immunostaining and Western blot analyses. […] The change of NKA conformation that occurs upon binding of agonists such as ouabain, results in the release and activation of the Src kinase domain from the “Naktide” site of NKA CD3, while the other interaction (constitutive) persists between NKA CD2 and the SH2 domain of Src. […] In LLC-PK1-derived cells with low NKA receptor constitutive activity due to substantial reduction (over 80%) of α1 NKA expression by siRNA (PY17 cells), increased basal Src and ERK activity is observed due to the abnormally high amount of Src kinase that remains in an active conformation. Increased basal Src and ERK activity is also observed in LLC-PK1-derived cells with reduced NKA receptor constitutive activity that result from mutations in either domain of interaction with Src without alteration of the ion pumping activity (e.g. A425P on the Naktide sequence, or Y260A on the CD2 domain).

YFP-tagged α1 NKA = molecular target: T1, YFP-tagged α1 NKA (Rattus norvegicus, UniProt P06685); test: ouabain-induced α1 NKA endocytosis in YFP-α1-TCN cells; type: cell-based; settings: YFP-α1-TCN cells, pretreatment
T1 construct: expressed in transfected cells; host or cells: YFP-α1-TCN cells
Procedure: It is appreciated that ouabain induces Src/ERK activation (increased protein phosphorylation) of LLC-PK1 cells by binding to α1 NKA and thereby initiates a signaling cascade which results in the endocytosis of the α1 NKA to terminate the signaling.
α1 NKA endocytosis assay. Endocytosis assay was performed as described before.
Characterization of MB5 activity on the NKA receptor function known as the NKA/Src binary receptor mechanism was conducted in a pig kidney epithelial cells (LLC-PK1)-based platform using immunostaining and Western blot analyses. […] The change of NKA conformation that occurs upon binding of agonists such as ouabain, results in the release and activation of the Src kinase domain from the “Naktide” site of NKA CD3, while the other interaction (constitutive) persists between NKA CD2 and the SH2 domain of Src.

[3] = test system: subclone 4 and 2 xenograft; test: tumor xenograft of aggressive subclones 4 and 2 in NOD/SCID mice; type: in vivo, mouse
Procedure: Mice studies. Animal protocols were approved by an Institutional Animal Care and Use Committee (IACUC) according to NIH guidelines. Tumor xenografts were established by subcutaneous injection of 5×10^6 cancer cells into the left and right flanks of 10-week-old male NOD/SCID mice (Charles River). Tumor length (L) and width (W) were measured with calipers weekly and tumor volume was estimated as V=(L×W^2)/2. After the tumor volumes reached approximately 100 mm^3, mice were sacrificed and tumors were harvested. Half of the tumors were used for protein extraction and the other half were digested with collagenase I solution (SIGMA) to isolate cancer cells.
For MB5 treatment, after tumor volume reached approximately 100 mm^3, mice were injected peritoneally with DMSO or MB5 at 20 mg/kg or 10 mg/kg daily and further monitored for tumor growth weekly. At the end of treatment period (about 2-3 weeks), tumors were harvested and tumor lysates were analyzed for protein expression by Western blot.
The therapeutic potential of MB5 in a tumor xenograft model was first tested by injecting DU145 or corresponding α1 knockdown cells (KD) into the right or left flank of 10-week-old NOD/SCID mice. The tumor growth was monitored twice weekly. […] Next, it was determined whether MB5 could decrease tumor growth of highly aggressive subclones derived from DU145. […]

PC3 cells = test: 3D culture spheroid invasion and growth, PC3; type: cell-based, human
Procedure: as §1, §2, §3, §4

SMILES: O=c1c2cccc(O)c2oc2c(O)c(O)ccc12 [MB5]
- E-cadherin and occludin expression (immunostaining) (DU145 derived subclones): Increase in E-cadherin and occludin expression
- spheroid invasion ([1]; clone 2 spheroids, 3D culture): abolished the invasion; also recorded: suppressed spheroid invasion by subclone 2 cells in a dose-dependent manner; also recorded: significantly reduced invasion of clone 2 spheroids in a dose-dependent manner
- spheroid size ([1]; subclone 2 spheroids, 72 hours): significantly reduced spheroid size
- MMP2 and 9 secretion (subclone 2 spheroids): significantly reduced MMP2 and 9 secretions
- EGF-induced ERK activation [2]: did not inhibit; also recorded: failed to inhibit; also recorded: did not affect EGF-induced ERK activation
- dopamine-induced ERK activation [2]: did not inhibit; also recorded: failed to inhibit; also recorded: did not affect dopamine-induced activation of ERK
- plasma stability (plasma stability): good plasma stability
- basal ERK phosphorylation (A425P and Y260A cells): did not reduce high levels of ERK phosphorylation
- inhibition of ouabain-induced α1 NKA endocytosis (YFP-tagged α1 NKA): able to inhibit ouabain-induced α1 NKA endocytosis; also recorded: potent inverse agonist of ouabain-induced α1 NKA endocytosis; also recorded: inhibited ouabain-induced α1 NKA endocytosis in a concentration dependent manner
- tumor growth ([3]; 10 mg/kg, subclones 4 and 2): significantly reduced tumor growth from both cell types; also recorded: significantly reduced xenografted tumor growth
- α1 NKA and E-cadherin expression in tumor lysates ([3]; subclone 2 tumor lysates, Western blot): increasing α1 NKA and E-cadherin expression
- inhibition of spheroid size (PC3 cells; PC3, 0.1 μM): about 25%
- inhibition of spheroid size (PC3 cells; PC3, 1 μM): ~50%
- spheroid size / growth (PC3 cells; PC3 spheroids): reduced spheroid invasion and growth; also recorded: reduced spheroid size in a concentration-dependent manner
- spheroid invasion (PC3 cells; PC3 spheroids, day 7): reduced spheroid invasion; also recorded: suppressed spheroid invasion; also recorded: reduced both invasion
